# Reference: patent US20240293397A1 (H. Lundbeck A/S, priority 2010, published 2024)
# Structures can show the parent of a compound that is named as a salt. Where two headings read alike, the source gives them in different places.
# Columns and labels:
# [1] = Properties of polymorphic forms and salts (stability, solubility, hygroscopicity); assay type: physicochemical
# Protocol: The polymorphic forms have different properties.
# When a compound is administered as an oral drop formulation, a few drops of a concentrated, liquid formulation of said drug is measured out and added to a glass of water, juice or the like that the patient drinks. As an example, the antidepressant cipramil is provided as an oral drop formulation at 40 mg/ml.
# [2] = Long-term effects on body weight, relapse prevention study in patients with generalised anxiety disorder; assay type: in vivo, human; details: for Δ weight / ≥7% weight gain: GAD
# From the text: The recruitment of patients took place over time, and since the end of the study was defined by the last patient having completed at least 24 weeks, some patients received up to 56 weeks double-blind placebo-controlled treatment.
# (§1) The tables below show the mean difference in weight relative to the start of the open label period and to the time of randomisation and the fraction of patients experiencing equal to or more than […] during the study, i.e. potentially clinically significant increase.
# [3] = Long-term effects on body weight, relapse prevention study in patients with major depressive disorder; assay type: in vivo, human; details: for Δ weight / ≥7% weight gain: MDD
# From the text: The recruitment of patients took place over time, and since the end of the study was defined by the last patient having completed the 24 weeks study, some patients received up to 64 weeks double-blind placebo-controlled treatment. This study is also reported in poster NR4-14 presented at the 164th Annual Meeting of the American Psychiatric Association, May 14-18 2011, Honolulu, Hawaii, USA.
# as §1
# [4] = six weeks, cited from earlier work
# 5-HT1B receptor = 5-HT1B receptor (Homo sapiens, UniProt P28222); details: in vitro; cited from earlier work
# Chain of 5-HT1B receptor (P28222 whole entry): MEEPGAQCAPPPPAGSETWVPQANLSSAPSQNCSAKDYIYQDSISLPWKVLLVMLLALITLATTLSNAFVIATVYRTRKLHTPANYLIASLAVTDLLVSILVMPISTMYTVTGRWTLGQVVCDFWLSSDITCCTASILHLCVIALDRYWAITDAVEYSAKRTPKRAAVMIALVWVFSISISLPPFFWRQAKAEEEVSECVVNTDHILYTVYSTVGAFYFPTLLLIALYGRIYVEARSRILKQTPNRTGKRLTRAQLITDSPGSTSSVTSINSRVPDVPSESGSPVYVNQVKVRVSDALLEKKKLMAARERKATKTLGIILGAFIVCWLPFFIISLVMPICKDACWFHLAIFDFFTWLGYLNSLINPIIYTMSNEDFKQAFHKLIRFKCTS
# [5] = system: neurotransmitters serotonin, noradrenalin, dopamine, acetylcholine and histamine; details: in vivo nonclinical; cited from earlier work
# 5-HT7 receptor = 5-HT7 receptor (Homo sapiens, UniProt P34969); details: in vitro; cited from earlier work
# Chain of 5-HT7 receptor (P34969 whole entry): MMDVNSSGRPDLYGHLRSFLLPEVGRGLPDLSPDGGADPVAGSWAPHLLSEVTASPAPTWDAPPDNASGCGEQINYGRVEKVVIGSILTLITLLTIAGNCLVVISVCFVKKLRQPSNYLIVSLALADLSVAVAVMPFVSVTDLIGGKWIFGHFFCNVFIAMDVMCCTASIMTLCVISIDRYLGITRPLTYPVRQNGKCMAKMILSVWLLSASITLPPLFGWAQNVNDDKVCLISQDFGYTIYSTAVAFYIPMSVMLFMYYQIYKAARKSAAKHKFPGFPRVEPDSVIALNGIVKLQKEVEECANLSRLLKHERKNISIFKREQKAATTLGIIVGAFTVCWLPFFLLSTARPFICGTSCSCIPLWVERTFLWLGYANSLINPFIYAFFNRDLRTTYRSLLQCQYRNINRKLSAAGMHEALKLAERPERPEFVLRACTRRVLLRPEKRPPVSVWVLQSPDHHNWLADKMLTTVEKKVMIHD
# 5-HT3 receptor = target: T1, 5-HT3 receptor (Homo sapiens, UniProt P46098); details: in vitro; cited from earlier work
# T1 sequence (P46098 24-478): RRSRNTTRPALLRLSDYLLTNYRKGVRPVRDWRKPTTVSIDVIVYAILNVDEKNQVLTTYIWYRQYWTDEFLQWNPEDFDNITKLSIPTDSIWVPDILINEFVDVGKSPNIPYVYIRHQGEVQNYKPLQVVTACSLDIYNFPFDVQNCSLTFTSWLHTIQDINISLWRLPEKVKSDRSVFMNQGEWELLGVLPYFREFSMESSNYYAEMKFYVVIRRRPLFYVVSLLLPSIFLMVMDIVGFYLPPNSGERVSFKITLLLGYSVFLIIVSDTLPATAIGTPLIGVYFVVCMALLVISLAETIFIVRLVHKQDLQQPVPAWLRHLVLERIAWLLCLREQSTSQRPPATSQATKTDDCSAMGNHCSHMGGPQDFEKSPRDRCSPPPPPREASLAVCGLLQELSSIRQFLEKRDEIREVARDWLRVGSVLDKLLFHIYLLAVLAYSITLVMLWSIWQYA
# 5-HT transporter = 5-HT transporter (Homo sapiens, UniProt P31645); details: in vitro; cited from earlier work
# Chain of 5-HT transporter (P31645 whole entry, species assumed): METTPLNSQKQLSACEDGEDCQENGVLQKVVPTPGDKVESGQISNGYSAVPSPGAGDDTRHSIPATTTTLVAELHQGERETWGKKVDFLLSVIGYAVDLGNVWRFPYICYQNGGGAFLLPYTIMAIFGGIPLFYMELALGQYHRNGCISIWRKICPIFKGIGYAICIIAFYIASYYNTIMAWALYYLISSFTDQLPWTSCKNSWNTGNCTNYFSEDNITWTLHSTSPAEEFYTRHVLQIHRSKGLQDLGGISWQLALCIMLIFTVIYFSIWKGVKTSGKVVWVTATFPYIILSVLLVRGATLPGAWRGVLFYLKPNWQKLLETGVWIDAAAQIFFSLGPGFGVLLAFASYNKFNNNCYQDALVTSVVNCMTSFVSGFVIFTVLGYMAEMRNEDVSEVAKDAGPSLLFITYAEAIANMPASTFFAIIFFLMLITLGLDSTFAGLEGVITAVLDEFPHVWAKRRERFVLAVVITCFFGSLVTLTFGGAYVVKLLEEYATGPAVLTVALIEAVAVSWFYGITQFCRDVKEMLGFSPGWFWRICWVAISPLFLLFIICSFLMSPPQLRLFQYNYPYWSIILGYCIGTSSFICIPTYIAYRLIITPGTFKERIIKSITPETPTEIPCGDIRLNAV
# [6] = long-term (up to two years) relapse prevention study; cited from earlier work
# [7] = OCD patients; end of 2.5 years study; cited from earlier work
# [8] = long-term study (26-32 weeks); cited from earlier work
# [9] = six week study; cited from earlier work
# [10] = 566 patients, eight weeks; cited from earlier work
# [11] = 324 patients, eight weeks; cited from earlier work
# [12] = week 20, relative to start of open label period (t = 0), 227 patients
# [13] = week 32, relative to start of open label period (t = 0), 220 patients
# [14] = week 32, relative to time of randomisation (t = 20 weeks), 221 patients
# [15] = week 44, relative to start of open label period (t = 0), 179 patients
# [16] = week 44, relative to time of randomisation (t = 20 weeks), 180 patients
# [17] = week 56, relative to start of open label period (t = 0), 84 patients
# [18] = week 56, relative to time of randomisation (t = 20 weeks), 84 patients
# [19] = week 68, relative to start of open label period (t = 0), 28 patients
# [20] = week 68, relative to time of randomisation (t = 20 weeks), 28 patients
# [21] = week 76, relative to start of open label period (t = 0), 4 patients
# [22] = week 76, relative to time of randomisation (t = 20 weeks), 4 patients
# [23] = week 12, relative to start of open label period (t = 0), 204 patients
# [24] = week 24, relative to start of open label period (t = 0), 199 patients
# [25] = week 24, relative to time of randomisation (t = 12 weeks), 199 patients
# [26] = week 36, relative to start of open label period (t = 0), 157 patients
# [27] = week 36, relative to time of randomisation (t = 12 weeks), 157 patients
# [28] = week 48, relative to start of open label period (t = 0), 90 patients
# [29] = week 48, relative to time of randomisation (t = 12 weeks), 90 patients
# [30] = week 60, relative to start of open label period (t = 0), 52 patients
# [31] = week 60, relative to time of randomisation (t = 12 weeks), 52 patients
# [32] = week 72, relative to start of open label period (t = 0), 19 patients
# [33] = week 72, relative to time of randomisation (t = 12 weeks), 19 patients
# [34] = week 76, relative to start of open label period (t = 0), 3 patients
# [35] = week 76, relative to time of randomisation (t = 12 weeks), 3 patients
smiles,measurement,setting,value
"Cc1ccc(Sc2ccccc2N2CCNCC2)c(C)c1 (racemic) [DL lactate salt of Compound I, DL-lactate salt of 1-[2-(2,4-dimethylphenylsulphanyl)-phenyl]piperazine]",solubility,[1],high solubility
"Cc1ccc(Sc2ccccc2N2CCNCC2)c(C)c1 [Compound I HBr, 1-[2-(2,4-dimethyl-phenylsulfanyl)phenyl]piperazine HBr]",weight gain versus placebo after long-term treatment,[2]; combined data of tables 1-4 (MDD and GAD patients),no meaningful difference
same,Δ weight,[2]; [12],0.3 kg
same,≥7% weight gain,[2]; [12],2.6%
same,Δ weight,[2]; [13],0.5 kg
same,≥7% weight gain,[2]; [13],3.6%
same,Δ weight,[2]; [14],0.3 kg
same,≥7% weight gain,[2]; [14],0.9%
same,Δ weight,[2]; [15],0.8 kg
same,≥7% weight gain,[2]; [15],8.4%
same,Δ weight,[2]; [16],0.5 kg
same,≥7% weight gain,[2]; [16],4.4%
same,Δ weight,[2]; [17],1.5 kg
same,≥7% weight gain,[2]; [17],17.9%
same,Δ weight,[2]; [18],1.1 kg
same,≥7% weight gain,[2]; [18],10.7%
same,Δ weight,[2]; [19],1.5 kg
same,≥7% weight gain,[2]; [19],10.7%
same,Δ weight,[2]; [20],1.7 kg
same,≥7% weight gain,[2]; [20],10.7%
same,Δ weight,[2]; [21],0.9 kg
same,≥7% weight gain,[2]; [21],0.0%
same,Δ weight,[2]; [22],1.6 kg
same,≥7% weight gain,[2]; [22],0.0%
same,weight gain versus placebo after long-term treatment,"[3]; MDD patients, data of tables 1 and 2",no meaningful difference
same,Δ weight,[3]; [23],0.0 kg
same,≥7% weight gain,[3]; [23],2.0%
same,Δ weight,[3]; [24],0.3 kg
same,≥7% weight gain,[3]; [24],6.5%
same,Δ weight,[3]; [25],0.4 kg
same,≥7% weight gain,[3]; [25],2.0%
same,Δ weight,[3]; [26],0.6 kg
same,≥7% weight gain,[3]; [26],8.9%
same,Δ weight,[3]; [27],0.6 kg
same,≥7% weight gain,[3]; [27],6.4%
same,Δ weight,[3]; [28],0.7 kg
same,≥7% weight gain,[3]; [28],8.9%
same,Δ weight,[3]; [29],0.9 kg
same,≥7% weight gain,[3]; [29],8.9%
same,Δ weight,[3]; [30],0.4 kg
same,≥7% weight gain,[3]; [30],9.6%
same,Δ weight,[3]; [31],0.8 kg
same,≥7% weight gain,[3]; [31],13.5%
same,Δ weight,[3]; [32],-0.2 kg
same,≥7% weight gain,[3]; [32],10.5%
same,Δ weight,[3]; [33],0.3 kg
same,≥7% weight gain,[3]; [33],10.5%
same,Δ weight,[3]; [34],-2.3 kg
same,≥7% weight gain,[3]; [34],0.0%
same,Δ weight,[3]; [35],-0.8 kg
same,≥7% weight gain,[3]; [35],0.0%
"Cc1ccc(Sc2ccccc2N2CCNCC2)c(C)c1 [Compound I, 1-[2-(2,4-dimethyl-phenylsulfanyl)phenyl]piperazine]","changes in clinical laboratory results, vital signs, weight, or ECG parameters",[4]; MDD patients,no clinically relevant changes
same,treatment of depressive and anxious symptoms versus placebo,"[4]; approximately 100 patients in each arm, MDD",separates significantly from placebo
same,activity at 5-HT1B receptor,5-HT1B receptor,partial agonist
same,"levels of serotonin, noradrenalin, dopamine, acetylcholine and histamine in specific areas of the brain",[5],enhances levels
same,activity at 5-HT7 receptor,5-HT7 receptor,antagonist
same,activity at 5-HT3 receptor,5-HT3 receptor,antagonist
same,activity at 5-HT transporter,5-HT transporter,inhibitor
CN(C)CCC=C1c2ccccc2CCc2ccccc21 [amitriptyline],proportion of patients showing a PCS increase in body weight,[6],22%
CN(C)CCCC1(c2ccc(F)cc2)OCc2cc(C#N)ccc21 (stereo not shown) [citalopram],percentage of patients with PCS weight increase (7% or above compared to baseline),[7],14.3%
CN(C)CCCN1c2ccccc2CCc2ccc(Cl)cc21 [clomiptramine],percentage of patients with PCS weight increase (7% or above compared to baseline),[7],34.8%
CNCCC(Oc1ccc(C(F)(F)F)cc1)c1ccccc1 (stereo not shown) [fluoxetine],percentage of patients with PCS weight increase (7% or above compared to baseline),[7],8.7%
same,proportion of patients showing a PCS increase in body weight,[8],6.6%
Fc1ccc([C@@H]2CCNC[C@H]2COc2ccc3c(c2)OCO3)cc1 [paroxetine],weight gain,[9],no weight gain was noted
same,weight change,[10],small weight loss
same,percentage of patients with PCS weight increase (7% or above compared to baseline),[7],14.3%
same,effects on weight,[11],no substantial effects on weight
same,proportion of patients showing a PCS increase in body weight,[8],25.5%
CN[C@H]1CC[C@@H](c2ccc(Cl)c(Cl)c2)c2ccccc21 [sertraline],percentage of patients with PCS weight increase (7% or above compared to baseline),[7],4.5%
same,proportion of patients showing a PCS increase in body weight,[8],4.2%
